According to patent US20180055844A1 (Celgene Corporation, priority 2011, published 2018):
pIC50: −log10 of the molar value.

Legend:
Assay in all cases: Activity against lenalidomide resistant cell lines
Assay type in all cases: cell-based
D1 = conditions: D1, n = 3
Experimental: (§1) The ability of compounds to effect the proliferation of MM cell lines was investigated in an in vitro study. Uptake of [^3H]-thymidine by H929 MM cells and 7-AAD uptake in several MM cell lines (H929, U266B1, Anbl-6, KMS-34, OPM-2, DF-15, DF15/R, CAG, MM1.S and LP-1) was measured as an indicator of cell proliferation. Cells were incubated in the presence of compounds for 72 hours ([^3H]-thymidine was included for the last 6 hours of the incubation period) or 5 days followed by 7-AAD uptake to measure and count viable cells.

H929 = conditions: Homo sapiens, NCI-H929; H929, n = 3
Experimental: as §1

1054 = conditions: 1054, n = 3
Experimental: as §1

1051 = conditions: 1051, n = 3
Experimental: as §1

1053 = conditions: 1053, n = 3
Experimental: as §1

1052 = conditions: 1052, n = 3
Experimental: as §1

- IC50 (D1): No IC50
- pIC50 (H929): 4.90
- IC50 1054: No IC50
- IC50 1051: No IC50
- IC50 1053: No IC50
- IC50 1052: No IC50
SMILES: Nc1cccc2c1CN(C1CCC(=O)NC1=O)C2=O (stereo not drawn) [Lenolidomide, Lenalidomide, reference compound]
